These results are taken from PubChem BioAssay AID328 (DTP/NCI, 2004).

This test concerns BDF1 mice, P388 leukemia ip, median survival T/C. Description: NCI In Vivo Anticancer Drug Screen. Data for tumor model P388 Leukemia (intraperitoneal) in B6D2F1 (BDF1) mice. The settings on record: endpoint: median survival time, higher = longer survival. The procedure, abridged:
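Each value expresses how treatment altered survival: treated-mouse outcome over vehicle-mouse outcome, both groups bearing the transplanted tumour.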

Setting [1] is: dose: 50.0 mg/kg/injection, schedule: Q01DX009 (ip), vehicle: saline with Tween-80.
The mark [2] stands for this setting: dose: 100.0 mg/kg/injection, schedule: Q01DX009 (ip), vehicle: saline with Tween-80.
The mark [3] stands for this setting: dose: 200.0 mg/kg/injection, schedule: Q01DX009 (ip), vehicle: saline with Tween-80.
The mark [4] stands for this setting: dose: 100.0 mg/kg/injection, schedule: Q01DX009 (ip), vehicle: saline.
[5] abbreviates: dose: 100.0 mg/kg/injection, schedule: Q04DX003 (ip), vehicle: Klucel (hydroxypropylcellulose) (HPC).
[6] abbreviates: dose: 200.0 mg/kg/injection, schedule: Q04DX003 (ip), vehicle: Klucel (hydroxypropylcellulose) (HPC).
Setting [7] is: dose: 400.0 mg/kg/injection, schedule: Q04DX003 (ip), vehicle: Klucel (hydroxypropylcellulose) (HPC).

Values joined by “and” are separate entries in the source; they are usually repeats but may differ in a detail not shown here. Equal entries are not always repeated. Toxic doses and inconclusive results are not listed.

Regarding `COc1cccc2c1C(=O)c1c(O)c3c(c(O)c1C2=O)C[C@@](O)(/C(C)=N/NC(=O)c1ccccc1)C[C@@H]3OC1CC(N)C(O)C(C)O1` (some centres not stated), the T/C (dose: 0.38 mg/kg/injection, schedule: Q01DX009 (ip), vehicle: water) was 166 % of control; the T/C (dose: 0.75 mg/kg/injection, schedule: Q01DX009 (ip), vehicle: water) is 166 % of control; the T/C (dose: 1.5 mg/kg/injection, schedule: Q01DX009 (ip), vehicle: saline) is 216 % of control; the T/C (dose: 1.5 mg/kg/injection, schedule: Q01DX009 (ip), vehicle: water) was 123 % of control and 217 % of control; the T/C (dose: 3.0 mg/kg/injection, schedule: Q01DX009 (ip), vehicle: saline) was 250 % of control; the T/C (dose: 3.0 mg/kg/injection, schedule: Q01DX009 (ip), vehicle: water) was 245 % of control and 110 % of control. Also, the T/C reads like this: (dose: 3.0 mg/kg/injection, schedule: Q04DX003 (ip), vehicle: saline) 226 % of control; (dose: 6.0 mg/kg/injection, schedule: Q01DX009 (ip), vehicle: saline) 166 % of control; (dose: 6.0 mg/kg/injection, schedule: Q01DX009 (ip), vehicle: water) 164 % of control; (dose: 6.0 mg/kg/injection, schedule: Q04DX003 (ip), vehicle: saline) 208 % of control; (dose: 6.5 mg/kg/injection, schedule: Q04DX003 (ip), vehicle: water) 171 % of control; (dose: 10.8 mg/kg/injection, schedule: Q04DX003 (ip), vehicle: water) 165 % of control. The T/C was 95 % of control (dose: 12.0 mg/kg/injection, schedule: Q01DX009 (ip), vehicle: saline); 195 % of control (dose: 12.0 mg/kg/injection, schedule: Q04DX003 (ip), vehicle: saline); 103 % of control (dose: 18.0 mg/kg/injection, schedule: Q04DX003 (ip), vehicle: water).
With `ClCc1ccc(CCl)cc1`, the T/C (dose: 7.03 mg/kg/injection, schedule: Q01DX009 (ip), vehicle: Klucel (hydroxypropylcellulose) (HPC)) is 110 % of control.
As for `CSCCC(NC(=O)NC(CCSC)C(=O)Oc1ccc([N+](=O)[O-])cc1)C(=O)Oc1ccc([N+](=O)[O-])cc1` (configuration not stated), the T/C under setting [1] was 87 % of control, the T/C under setting [2] was 96 % of control and the T/C under setting [3] was 112 % of control.
Turning to `COc1ccc(C=NCCc2ccc(OC)c(OC)c2)cc1OC`, the T/C under setting [4] was 97 % of control; the T/C (dose: 200.0 mg/kg/injection, schedule: Q01DX009 (ip), vehicle: saline) was 97 % of control; the T/C (dose: 400.0 mg/kg/injection, schedule: Q01DX009 (ip), vehicle: saline) was 105 % of control.
In the case of `Cn1c(=O)n(C)c2ccccc21`, the T/C is, setting by setting: (dose: 15.0 mg/kg/injection, schedule: Q01DX001 (ip), vehicle: saline) 90 % of control; (dose: 25.0 mg/kg/injection, schedule: Q01DX001 (ip), vehicle: saline with Tween-80) 90 % of control and 100 % of control; (dose: 25.0 mg/kg/injection, schedule: Q01DX001 (ip), vehicle: saline) 90 % of control; (dose: 35.0 mg/kg/injection, schedule: Q01DX001 (ip), vehicle: saline) 100 % of control; (dose: 50.0 mg/kg/injection, schedule: Q01DX001 (ip), vehicle: saline with Tween-80) 104 % of control; (dose: 50.0 mg/kg/injection, schedule: Q01DX001 (ip), vehicle: saline) 100 % of control. Further, the T/C runs as follows: (dose: 75.0 mg/kg/injection, schedule: Q01DX001 (ip), vehicle: saline) 90 % of control; (dose: 100.0 mg/kg/injection, schedule: Q01DX001 (ip), vehicle: saline with Tween-80) 90 % of control and 95 % of control; under setting [5], 95 % of control; under setting [6], 91 % of control; under setting [7], 91 % of control.
In the case of `Nc1[nH]c(=S)[nH]c(=O)c1N`, the T/C is 115 % of control (dose: 75.0 mg/kg/injection, schedule: Q01DX009 (ip), vehicle: Klucel (hydroxypropylcellulose) (HPC)); 95 % of control (dose: 100.0 mg/kg/injection, schedule: Q01DX001 (ip), vehicle: Klucel (hydroxypropylcellulose) (HPC)); 95 % of control (dose: 200.0 mg/kg/injection, schedule: Q01DX001 (ip), vehicle: Klucel (hydroxypropylcellulose) (HPC)).
As for `CCOC(=O)C(C(=O)OCC)C1c2ccccc2C(=O)N(CCN(C)C)c2ccccc21` (configuration not stated), the T/C by setting is: (dose: 25.0 mg/kg/injection, schedule: Q01DX009 (ip), vehicle: saline) 109 % of control; (dose: 50.0 mg/kg/injection, schedule: Q01DX009 (ip), vehicle: saline) 95 % of control; (dose: 50.0 mg/kg/injection, schedule: Q04DX003 (ip), vehicle: saline) 91 % of control; under setting [4], 104 % of control; (dose: 100.0 mg/kg/injection, schedule: Q04DX003 (ip), vehicle: saline) 87 % of control.
Regarding `O=S1(=O)CC(O)C(Cl)C1` (configuration not stated), the T/C runs as follows: (dose: 100.0 mg/kg/injection, schedule: Q01DX001 (ip), vehicle: saline) 104 % of control; under setting [5], 100 % of control; (dose: 200.0 mg/kg/injection, schedule: Q01DX001 (ip), vehicle: saline) 100 % of control; under setting [6], 100 % of control; under setting [7], 100 % of control.
Regarding `CC(=O)C1=C(O)C2C3c4c[nH]c5cccc(c45)CC3C(C)(C)N2C1=O` (configuration not stated), the T/C runs as follows: (dose: 0.5 mg/kg/injection, schedule: Q01DX010 (ip), vehicle: saline) 100 % of control; (dose: 1.0 mg/kg/injection, schedule: Q01DX010 (ip), vehicle: saline) 100 % of control; (dose: 2.0 mg/kg/injection, schedule: Q01DX010 (ip), vehicle: saline) 100 % of control; (dose: 4.0 mg/kg/injection, schedule: Q01DX010 (ip), vehicle: saline) 110 % of control.
Regarding `O=[N+]([O-])c1ccc(S(=O)(=O)Cc2ccccc2)c2c1no[n+]2[O-]`, the T/C (dose: 25.0 mg/kg/injection, schedule: Q01DX009 (ip), vehicle: saline with Tween-80) is 116 % of control and the T/C under setting [1] is 116 % of control.
For `O=C(O)Cn1c(C(F)(F)F)nc2nc(Cl)c(Cl)nc21`, the T/C under setting [2] is 90 % of control; the T/C under setting [3] was 90 % of control; the T/C (dose: 400.0 mg/kg/injection, schedule: Q01DX009 (ip), vehicle: saline with Tween-80) was 100 % of control.
As to `COc1ccc(/C=C/C(=O)c2ccc(OC)c(OCc3ccccc3)c2)cc1OC`, the T/C (dose: 25.0 mg/kg/injection, schedule: Q01DX009 (ip), vehicle: water) was 97 % of control; the T/C (dose: 50.0 mg/kg/injection, schedule: Q01DX009 (ip), vehicle: water) is 100 % of control and 121 % of control; the T/C (dose: 50.0 mg/kg/injection, schedule: Q04DX003 (ip), vehicle: water) was 100 % of control; the T/C (dose: 100.0 mg/kg/injection, schedule: Q01DX009 (ip), vehicle: water) was 100 % of control and 111 % of control; the T/C (dose: 100.0 mg/kg/injection, schedule: Q04DX003 (ip), vehicle: water) was 94 % of control; the T/C (dose: 200.0 mg/kg/injection, schedule: Q01DX009 (ip), vehicle: water) was 95 % of control and 101 % of control. For the same compound, the T/C was 86 % of control (dose: 200.0 mg/kg/injection, schedule: Q04DX003 (ip), vehicle: water); 97 % of control (dose: 400.0 mg/kg/injection, schedule: Q01DX009 (ip), vehicle: water); 88 % of control (dose: 400.0 mg/kg/injection, schedule: Q04DX003 (ip), vehicle: water); 91 % of control (dose: 600.0 mg/kg/injection, schedule: Q01DX009 (ip), vehicle: water).
For `CN=C1c2ccccc2C2(c3ccccc3)C1N2C` (configuration not stated), the T/C (dose: 37.5 mg/kg/injection, schedule: Q01DX009 (ip), vehicle: saline with Tween-80) is 104 % of control; the T/C (dose: 75.0 mg/kg/injection, schedule: Q01DX009 (ip), vehicle: saline with Tween-80) is 109 % of control; the T/C (dose: 150.0 mg/kg/injection, schedule: Q01DX009 (ip), vehicle: saline with Tween-80) is 118 % of control.
`CN(C)[C@@H]1C(=O)C(C(N)=O)=C(O)[C@]2(O)C(=O)C3C(=O)c4c(O)ccc(Cl)c4[C@](C)(O)[C@H]3C[C@@H]12` (some centres not stated): the T/C (dose: 33.0 mg/kg/injection, schedule: Q04DX003 (ip), vehicle: saline sonified) was 115 % of control.
Consider `O=C(Nc1cccc2c1N(C(=O)c1ccco1)CCC2)c1ccco1`, for which the T/C reads like this: (dose: 100.0 mg/kg/injection, schedule: Q04DX003 (ip), vehicle: saline with Tween-80) 91 % of control; (dose: 200.0 mg/kg/injection, schedule: Q04DX003 (ip), vehicle: saline with Tween-80) 100 % of control; (dose: 400.0 mg/kg/injection, schedule: Q04DX003 (ip), vehicle: saline with Tween-80) 104 % of control.
